Data: US11059795B2, “Androgen receptor modulators and methods for their use” (ESSA Pharma, Inc., priority 2018, dated 2021)

Tests used:
androgen receptor (AR) = biological target: T1, androgen receptor (AR) (Homo sapiens, UniProt P10275, T878A); assay: Androgen-induced PSA (6.1 kb)-luciferase reporter assay in LNCaP cells; format: cell-based; conditions: LNCaP cells transfected with PSA (6.1 kb)-luciferase reporter, R1881 1 nM, 24 h; read-out: PSA-Luc IC50 Range
T1 construct: LNCaP cells were transiently transfected with the PSA (6.1 kb)-luciferase reporter for 24 h; endogenous in cells; host or cells: LNCaP
T1 sequence (P10275 1-920 T878A): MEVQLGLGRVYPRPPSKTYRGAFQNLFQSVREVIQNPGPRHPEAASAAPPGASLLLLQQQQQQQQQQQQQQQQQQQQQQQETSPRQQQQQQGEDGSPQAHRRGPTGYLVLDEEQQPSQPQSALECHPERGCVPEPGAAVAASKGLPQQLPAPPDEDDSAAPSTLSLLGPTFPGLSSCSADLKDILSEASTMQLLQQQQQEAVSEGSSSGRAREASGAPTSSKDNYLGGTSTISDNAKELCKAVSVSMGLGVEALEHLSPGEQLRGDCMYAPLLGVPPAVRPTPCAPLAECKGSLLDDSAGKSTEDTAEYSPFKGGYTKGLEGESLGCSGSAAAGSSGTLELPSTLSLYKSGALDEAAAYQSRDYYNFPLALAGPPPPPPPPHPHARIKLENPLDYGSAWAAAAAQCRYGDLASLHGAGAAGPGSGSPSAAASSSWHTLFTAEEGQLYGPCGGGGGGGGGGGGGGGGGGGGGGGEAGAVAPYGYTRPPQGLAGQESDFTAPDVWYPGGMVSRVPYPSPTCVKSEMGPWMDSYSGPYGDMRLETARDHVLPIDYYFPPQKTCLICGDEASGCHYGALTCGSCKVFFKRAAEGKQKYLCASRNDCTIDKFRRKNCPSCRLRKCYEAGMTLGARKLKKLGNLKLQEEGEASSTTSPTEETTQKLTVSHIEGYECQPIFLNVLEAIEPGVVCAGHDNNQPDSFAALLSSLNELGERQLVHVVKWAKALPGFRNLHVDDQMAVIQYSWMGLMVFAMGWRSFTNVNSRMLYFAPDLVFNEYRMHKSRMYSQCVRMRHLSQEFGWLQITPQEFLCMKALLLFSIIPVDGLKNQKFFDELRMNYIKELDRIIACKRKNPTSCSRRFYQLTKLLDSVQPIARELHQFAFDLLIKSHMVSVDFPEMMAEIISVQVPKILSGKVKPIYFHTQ
Description: The PSA (6.1 kb)-luciferase reporter contains functional AREs (androgen response elements) to which AR binds in response to androgen to induce luciferase activity.
Cells were lysed using Passive Lysis Buffer (Promega) and then collected into V-bottom 96-well tissue culture plates. Lysates were centrifuged at 4° C. for 5 minutes at 3000 rpm. To measure luminescence of LNCaP cell lysates the Firefly Luciferase Assay System (Promega) was employed, according to manufacturer's protocol. Relative luminescence units (RLU) in cell lysates were detected for 10 seconds using Promega GloMax-Multi Detection Luminometer (Promega). Values were normalized to protein content. GraphPad Prism graphing software was used to calculate IC50 values.
Comparisons between treatment and control groups were compared using Two-Way ANOVA with post-hoc Dunnett's and Tukey's tests. Differences were considered statistically significant at P values less than 0.05.

[1] = Microsomal stability assay, human liver microsomes; format: in vitro ADME; conditions: pH 7.4, 1 μM compound, 0.5 mg/mL protein, 37° C., read-out: HLM +/− NADPH: Clint (μL/min/mg protein)
Description: Microsomal stability assay is a widely used in vitro model to characterize the metabolic conversion by phase I enzymes, such as cytochrome P450 (CYP) enzymes. Since metabolism is known to be highly variable in different species, microsomal stability assay is commonly run in multiple species. Metabolic stability of testing compound can be evaluated using human, rat, mouse, or other animal liver or intestine microsomes to predict intrinsic clearance.
The assay was carried out in 96-well microtiter plates at 37° C. Reaction mixtures (25 μL) contained a final concentration of 1 μM test compound, 0.5 mg/mL liver microsomes protein, and 1 mM NADPH and/or 1 mM UDPGA (with alamethicin) in 100 mM potassium phosphate, pH 7.4 buffer with 3 mM MgCl2. The incubation was done with N=1, but duplicate incubation at each time point can be prepared if necessary. At each of the time points (for example, 0, 15, 30, and 60 minutes), 150 μL of quench solution (100% acetonitrile with 0.1% formic acid) with internal standard was transferred to each well. Besides the zero minute controls, mixtures containing the same components except the NADPH can also be prepared as the negative control. Verapamil was included as a positive control to verify assay performance. Plates were sealed, vortexed, and centrifuged at 4° C. for 15 minutes at 4000 rpm. The supernatant is transferred to fresh plates for LC/MS/MS analysis.
Summarized conditions: [Compound]=[…], [LM]=0.5 mg/mL, [NADPH]=1 mM and/or [UDPGA]=1 mM, Buffer=100 mM Potassium Phosphate, pH 7.4 with 3 mM MgCl2, Time=0, 15, 30, and 60 min, and Temperature=37° C.
All samples were analyzed on LC/MS/MS using an AB Sciex API 4000 instrument, coupled to a Shimadzu LC-20AD LC Pump system. Analytical samples were separated using a Waters Atlantis T3 dC18 reverse phase HPLC column (20 mm×2.1 mm) at a flow rate of 0.5 mL/min. The mobile phase consisted of 0.1% formic acid in water (solvent A) and 0.1% formic acid in 100% acetonitrile (solvent B).
The extent of metabolism is calculated as the disappearance of the test compound, compared to the 0-min time incubation. Initial rates are calculated for the compound concentration and used to determine half-life (t½) values and subsequently, the intrinsic clearance (Clint). Clint=(0.693)(1/t½ (min))(g of liver/kg of body weight)(mL incubation/mg of microsomal protein)(45 mg of microsomal protein/g of liver weight)

CC(C)(c1ccc(OCc2cn(S(C)(=O)=O)cn2)cc1)c1cc(Cl)c(OCCCCl)c(Cl)c1 [Compound A5, 4-((4-(2-(3,5-dichloro-4-(3-chloropropoxy)phenyl)propan-2-yl)phenoxy)methyl)-1-(methylsulfonyl)-1H-imidazole] showed an IC50 (androgen receptor (AR)) of 500 to 2000 nM and a microsomal CLint at 1 μM [1] of under 12 µL/min/mg.
Compound CC(C)(c1ccc(OCc2nnc(S(C)(=O)=O)o2)cc1)c1cc(Cl)c(OCCCCl)c(Cl)c1 [Compound A7, 2-((4-(2-(3,5-dichloro-4-(3-chloropropoxy)phenyl)propan-2-yl)phenoxy)methyl)-5-(methylsulfonyl)-1,3,4-oxadiazole] has an IC50 (androgen receptor (AR)) of over 2000 nM and a microsomal CLint at 1 μM [1] of at least 48 µL/min/mg.
CSc1nnc(COc2ccc(C(C)(C)c3cc(Cl)c(OCCCCl)c(Cl)c3)cc2)o1 [Compound A17] showed an IC50 (androgen receptor (AR)) of 500 to 2000 nM and a microsomal CLint at 1 μM [1] of under 12 µL/min/mg.
CC(C)(c1ccc(OCc2nnc(O)o2)cc1)c1cc(Cl)c(OCCCCl)c(Cl)c1 [Compound A18] showed an IC50 (androgen receptor (AR)) of over 2000 nM and a microsomal CLint at 1 μM [1] of at least 48 µL/min/mg.
CC(C)(c1ccc(-c2coc(CNS(C)(=O)=O)n2)cc1)c1cc(Cl)c(OCCCCl)c(Cl)c1 [Compound A21] gave a microsomal CLint at 1 μM [1] of under 12 µL/min/mg.
CC(C)(c1ccc(-c2cc(CNS(C)(=O)=O)on2)cc1)c1cc(Cl)c(OCCCCl)c(Cl)c1 [Compound A22, N-((3-(4-(2-(3,5-dichloro-4-(3-chloropropoxy)phenyl)propan-2-yl)phenyl) Isoxazol-5-yl)methyl)methanesulfonamide] gave an IC50 (androgen receptor (AR)) of over 2000 nM and a microsomal CLint at 1 μM [1] of under 12 µL/min/mg.
With CC(=O)Nc1cc(COc2ccc(C(C)(C)c3cc(Cl)c(OCCCCl)c(Cl)c3)cc2)on1 [Compound A23] the IC50 (androgen receptor (AR)) was over 2000 nM and the microsomal CLint at 1 μM [1] was 12 to 48 µL/min/mg.
CC(C)(c1ccc(-n2cnc(CNS(C)(=O)=O)c2)cc1)c1cc(Cl)c(OCCCl)c(Cl)c1 [Compound A24] gave an IC50 (androgen receptor (AR)) of 500 to 2000 nM and a microsomal CLint at 1 μM [1] of under 12 µL/min/mg.
With CC(C)(c1ccc(-c2c[nH]c(CNS(C)(=O)=O)n2)cc1)c1cc(Cl)c(OCCCCl)c(Cl)c1 [Compound A25] the IC50 (androgen receptor (AR)) was over 2000 nM and the microsomal CLint at 1 μM [1] was under 12 µL/min/mg.
CC(C)(C)N(c1ccc(OCc2ocnc2S(C)(=O)=O)cc1)c1cc(Cl)c(OCCCl)c(Cl)c1 [Compound A31, N-tert-Butyl-3,5-dichloro-4-(2-chloroethoxy)-N-[4-[(4-methylsulfonyloxazol-5-yl)-methoxy]-phenyl]aniline] gave an IC50 (androgen receptor (AR)) of under 500 nM and a microsomal CLint at 1 μM [1] of 12 to 48 µL/min/mg.
With CC(C)(c1ccc(OCc2[nH]ncc2NS(C)(=O)=O)cc1)c1cc(Cl)c(OCCCl)c(Cl)c1 [Compound A40, N-[3-[[4-[1-[3,5-Dichloro-4-(2-chloroethoxy)phenyl]-1-methyl-ethyl]phenoxy]methyl]-1H-pyrazol-4-yl]methanesulfonamide] the IC50 (androgen receptor (AR)) was 500 to 2000 nM and the microsomal CLint at 1 μM [1] was 12 to 48 µL/min/mg.
Work on CC(C)(c1ccc(OCc2ncncc2NS(C)(=O)=O)cc1)c1cc(Cl)c(OCCCl)c(Cl)c1 [Compound A41, N-(4-((4-(2-(3,5-Dichloro-4-(2-chloroethoxy)phenyl)propan-2-yl)phenoxy)methyl)pyrimidin-5-yl)methanesulfonamide] yielded an IC50 (androgen receptor (AR)) of over 2000 nM and a microsomal CLint at 1 μM [1] of at least 48 µL/min/mg.
CC(C)(c1ccc(OCc2ocnc2S(C)(=O)=O)cc1)c1cc(Cl)c(NCCCl)c(Cl)c1 [Compound A50] gave an IC50 (androgen receptor (AR)) of 500 to 2000 nM and a microsomal CLint at 1 μM [1] of 12 to 48 µL/min/mg.
In the case of CCOc1c(Cl)cc(C(C)(C)c2ccc(OCc3ocnc3S(C)(=O)=O)cc2)cc1Cl [Compound A52], the IC50 (androgen receptor (AR)) is reported as over 2000 nM and the microsomal CLint at 1 μM [1] is reported as under 12 µL/min/mg.
With CC(C)(c1ccc(OCc2ocnc2S(C)(=O)=O)cc1)c1cc(Cl)c(OCCN)c(Cl)c1 [Compound A53] the IC50 (androgen receptor (AR)) was over 2000 nM and the microsomal CLint at 1 μM [1] was under 12 µL/min/mg.
For CC(C)(c1ccc(OCc2ocnc2S(C)(=O)=O)cc1)c1cc(Cl)c(OCCC(F)(F)F)c(Cl)c1 [Compound A54, 5-((4-(2-(3,5-Dichloro-4-(3,3,3-trifluoropropoxy)phenyl)propan-2-yl)phenoxy)methyl)-4-(methylsulfonyl)oxazole], the IC50 (androgen receptor (AR)) was 500 to 2000 nM and the microsomal CLint at 1 μM [1] was under 12 µL/min/mg.
With COc1c(Cl)cc(C(C)(C)c2ccc(OCc3ocnc3S(C)(=O)=O)cc2)cc1Cl [Compound A56] the IC50 (androgen receptor (AR)) was 500 to 2000 nM and the microsomal CLint at 1 μM [1] was under 12 µL/min/mg.
CC(C)(c1ccc(OCc2ocnc2S(C)(=O)=O)cc1)c1cnc(NCCCl)nc1 [Compound A58] showed an IC50 (androgen receptor (AR)) of over 2000 nM and a microsomal CLint at 1 μM [1] of 12 to 48 µL/min/mg.
CC(C)(c1ccc(OCCCl)c(Cl)c1)c1ccc(OCc2ocnc2S(C)(=O)=O)c(C#N)c1 [Compound A62] gave an IC50 (androgen receptor (AR)) of over 2000 nM and a microsomal CLint at 1 μM [1] of under 12 µL/min/mg.
Compound CC(C)(c1ccc(OCCCl)c(C#N)c1)c1ccc(OCc2ocnc2S(C)(=O)=O)c(C#N)c1 [Compound A63, 2-(2-chloroethoxy)-5-(2-(3-cyano-4-((4-(methylsulfonyl)oxazol-5-yl)methoxy)phenyl)propan-2-yl)benzonitrile] has an IC50 (androgen receptor (AR)) of 500 to 2000 nM and a microsomal CLint at 1 μM [1] of 12 to 48 µL/min/mg.
Cc1nc(-c2ccc(C(C)(C)c3cc(Cl)c(OCCCCl)c(Cl)c3)cc2)co1 [Compound A64] gave an IC50 (androgen receptor (AR)) of over 2000 nM and a microsomal CLint at 1 μM [1] of at least 48 µL/min/mg.
For CC(C)(c1ccc(Nc2ncc(CNS(C)(=O)=O)o2)cc1)c1cc(Cl)c(OCCCl)c(Cl)c1 [Compound A75, N-((2-((4-(2-(3,5-Dichloro-4-(2-chloroethoxy)phenyl)propan-2-yl)phenyl)amino)oxazol-5-yl)methyl)methanesulfonamide], the IC50 (androgen receptor (AR)) was 500 to 2000 nM and the microsomal CLint at 1 μM [1] was under 12 µL/min/mg.
Compound CC(C)(c1cc(Cl)c(OCCCl)c(Cl)c1)c1ccc(OCc2ocnc2S(C)(=O)=O)c(C(N)=O)c1 [Compound A76] has an IC50 (androgen receptor (AR)) of 500 to 2000 nM and a microsomal CLint at 1 μM [1] of under 12 µL/min/mg.
Work on CC(C)(c1ccc(OCc2n[nH]cc2NS(=O)(=O)C(F)(F)F)cc1)c1cc(Cl)c(OCCCl)c(Cl)c1 [Compound A106] yielded an IC50 (androgen receptor (AR)) of under 500 nM and a microsomal CLint at 1 μM [1] of 12 to 48 µL/min/mg.
For CC(C)(c1ccc(OCc2noc(S(C)(=O)=O)n2)cc1)c1cc(Cl)c(OCCCl)c(C#N)c1 [Compound A151], the IC50 (androgen receptor (AR)) was 500 to 2000 nM.
Work on CC(C)(c1ccc(OCc2nc(NS(C)(=O)=O)nc3c2CCNC3)cc1)c1cc(Cl)c(OCCCl)c(C#N)c1 [Compound A191] yielded an IC50 (androgen receptor (AR)) of 500 to 2000 nM.
CC(C)(c1ccc(OC2CCc3cnc(NS(C)(=O)=O)nc32)cc1)c1cc(Cl)c(OCCCl)c(C#N)c1 (stereo not drawn) [Compound A203] showed an IC50 (androgen receptor (AR)) of 500 to 2000 nM.
CC(C)(c1ccc(OCc2ccnc(NS(C)(=O)=O)n2)cc1)c1cc(F)c(OCCCl)c(C#N)c1 [Compound A205] gave an IC50 (androgen receptor (AR)) of 500 to 2000 nM.
